Test results published in ChEMBL document CHEMBL5576060, “Discovery of acetophenone/piperazin-2-one hybrids as selective anti-TNBC cancer agents by causing DNA damage” (Bioorg Med Chem Lett, 2024).
Activity calls are given as the source filed them. No cut-off for these calls is given here.

Legend:
MDA-MB-468 [1] = experiment: Antiproliferative activity against human MDA-MB-468 cells assessed as inhibition of cell growth at 10 uM incubated for 72 hrs; format: functional
MDA-MB-468 [2] = experiment: Antiproliferative activity against human MDA-MB-468 cells assessed as inhibition of cell growth; format: functional, cell-based
SK-BR-3 [3] = experiment: Antiproliferative activity against human SK-BR-3 cells assessed as inhibition of cell growth; format: functional, cell-based
JIMT-1 [4] = experiment: Antiproliferative activity against human JIMT-1 cells assessed as inhibition of cell growth; format: functional, cell-based
BT-474 [5] = experiment: Antiproliferative activity against human BT-474 cells assessed as inhibition of cell growth; format: functional, cell-based
MCF7 [6] = experiment: Antiproliferative activity against human MCF7 cells assessed as inhibition of cell growth; format: functional, cell-based
[7] = Antiproliferative activity against human MCF-10A cells assessed as inhibition of cell growth; format: toxicity, cell-based
[8] = Selectivity index, ratio of IC50 for antiproliferative activity against human BT-474 cells assessed as inhibition of cell growth to IC50 for antiproliferative activity against human MDA-MB-468 cells assessed as inhibition of cell growth; format: functional
MDA-MB-468 [9] = experiment: Potency index, ratio of cisplatin IC50 to test compound IC50 for antiproliferative activity against human MDA-MB-468 cells assessed as inhibition of cell growth; format: functional
MDA-MB-468 [10] = experiment: Induction of DNA damage in human MDA-MB-468 cells assessed as increase in accumulation of gammaH2AX level; format: functional, cell-based; conditions: dose <= 20.0 µM
MDA-MB-468 [11] = experiment: Induction of DNA damage in human MDA-MB-468 cells assessed as increase in p53 expression; format: functional, cell-based; conditions: dose <= 20.0 µM
[12] = target: MAP kinase p38 (Homo sapiens) (UniProt O15264+Q15759+Q16539+P53778); experiment: Inhibition of P38 phosphorylation in human MDA-MB-468 cells upto 20 uM; format: cell-based
MDA-MB-468 [13] = experiment: Downregulation of HSP70 expression in human MDA-MB-468 cells upto 20 uM; format: functional, cell-based
MDA-MB-468 [14] = experiment: Effect on HSF-1 level in human MDA-MB-468 cells upto 20 uM; format: functional, cell-based
MDA-MB-468 [15] = experiment: Effect on HSP90 level in human MDA-MB-468 cells upto 20 uM; format: functional, cell-based
SK-BR-3 [16] = experiment: Effect on HSP70 expression in human SK-BR-3 cells at 20 uM measured for 48 hrs by immunoblot analysis; format: functional, cell-based
SK-BR-3 [17] = experiment: Effect on P53 expression in human SK-BR-3 cells at 20 uM measured for 48 hrs by immunoblot analysis; format: functional, cell-based
SK-BR-3 [18] = experiment: Effect on P38 expression in human SK-BR-3 cells at 20 uM measured for 48 hrs by immunoblot analysis; format: functional, cell-based
SK-BR-3 [19] = experiment: Effect on gamma H2AX expression in human SK-BR-3 cells at 20 uM measured for 48 hrs by immunoblot analysis; format: functional, cell-based
JIMT-1 [20] = experiment: Effect on HSP70 expression in human JIMT- 1 cells at 20 uM measured for 48 hrs by immunoblot analysis; format: functional, cell-based
JIMT-1 [21] = experiment: Effect on P53 expression in human JIMT- 1 cells at 20 uM measured for 48 hrs by immunoblot analysis; format: functional, cell-based
JIMT-1 [22] = experiment: Effect on P38 expression in human JIMT- 1 cells at 20 uM measured for 48 hrs by immunoblot analysis; format: functional, cell-based
JIMT-1 [23] = experiment: Effect on gammaH2AX expression in human JIMT- 1 cells at 20 uM measured for 48 hrs by immunoblot analysis; format: functional, cell-based
BT-474 [24] = experiment: Effect on HSP70 expression in human BT-474 cells at 20 uM measured for 48 hrs by immunoblot analysis; format: functional, cell-based
BT-474 [25] = experiment: Effect on P53 expression in human BT-474 cells at 20 uM measured for 48 hrs by immunoblot analysis; format: functional, cell-based
BT-474 [26] = experiment: Effect on P38 expression in human BT-474 cells at 20 uM measured for 48 hrs by immunoblot analysis; format: functional, cell-based
BT-474 [27] = experiment: Effect on gammaH2AX expression in human BT-474 cells at 20 uM measured for 48 hrs by immunoblot analysis; format: functional, cell-based
MCF7 [28] = experiment: Effect on HSP70 expression in human MCF7 cells at 20 uM measured for 48 hrs by immunoblot analysis; format: functional, cell-based
MCF7 [29] = experiment: Effect on P53 expression in human MCF7 cells at 20 uM measured for 48 hrs by immunoblot analysis; format: functional, cell-based
MCF7 [30] = experiment: Effect on P38 expression in human MCF7 cells at 20 uM measured for 48 hrs by immunoblot analysis; format: functional, cell-based
MCF7 [31] = experiment: Effect on gammaH2AX expression in human MCF7 cells at 20 uM measured for 48 hrs by immunoblot analysis; format: functional, cell-based
MCF-10A [32] = experiment: Effect on HSP70 expression in human MCF-10A cells at 20 uM measured for 48 hrs by immunoblot analysis; format: functional, cell-based
MCF-10A [33] = experiment: Effect on P53 expression in human MCF-10A cells at 20 uM measured for 48 hrs by immunoblot analysis; format: functional, cell-based
MCF-10A [34] = experiment: Effect on P38 expression in human MCF-10A cells at 20 uM measured for 48 hrs by immunoblot analysis; format: functional, cell-based
MCF-10A [35] = experiment: Effect on gammaH2AX expression in human MCF-10A cells at 20 uM measured for 48 hrs by immunoblot analysis; format: functional, cell-based
MDA-MB-468 [36] = experiment: Induction of cell cycle arrest in human MDA-MB-468 cells assessed as accumulation of cells at G1 phase at 5 uM measured for 48 hrs by PI staining based flow cytometry analysis (reference value: 80.8%); format: functional
MDA-MB-468 [37] = experiment: Induction of cell cycle arrest in human MDA-MB-468 cells assessed as accumulation of cells at S phase at 5 uM measured for 48 hrs by PI staining based flow cytometry analysis (reference value: 4.39%); format: functional
MDA-MB-468 [38] = experiment: Induction of cell cycle arrest in human MDA-MB-468 cells assessed as accumulation of cells at G2 phase at 5 uM measured for 48 hrs by PI staining based flow cytometry analysis (reference value: 16.4%); format: functional
MDA-MB-468 [39] = experiment: Induction of cell cycle arrest in human MDA-MB-468 cells assessed as accumulation of cells at G1 phase at 10 uM measured for 48 hrs by PI staining based flow cytometry analysis (reference value: 80.8%); format: functional
MDA-MB-468 [40] = experiment: Induction of cell cycle arrest in human MDA-MB-468 cells assessed as accumulation of cells at S phase at 10 uM measured for 48 hrs by PI staining based flow cytometry analysis (reference value: 4.39%); format: functional
MDA-MB-468 [41] = experiment: Induction of cell cycle arrest in human MDA-MB-468 cells assessed as accumulation of cells at G2 phase at 10 uM measured for 48 hrs by PI staining based flow cytometry analysis (reference value: 16.4%); format: functional
MDA-MB-468 [42] = experiment: Induction of cell cycle arrest in human MDA-MB-468 cells assessed as accumulation of cells at G1 phase at 20 uM measured for 48 hrs by PI staining based flow cytometry analysis (reference value: 80.8%); format: functional
MDA-MB-468 [43] = experiment: Induction of cell cycle arrest in human MDA-MB-468 cells assessed as accumulation of cells at S phase at 20 uM measured for 48 hrs by PI staining based flow cytometry analysis (reference value: 4.39%); format: functional
MDA-MB-468 [44] = experiment: Induction of cell cycle arrest in human MDA-MB-468 cells assessed as accumulation of cells at G2 phase at 20 uM measured for 48 hrs by PI staining based flow cytometry analysis (reference value: 16.4%); format: functional

Molecule `O=C1Nc2ccccc2N/C1=C\C(=O)c1ccccc1` has an inhibition at 10 µM (MDA-MB-468 [1]) of 50%, an IC50 (MDA-MB-468 [2]) of 7.73 µM and an IC50 (SK-BR-3 [3]) greater than 10 µM. For the same molecule, the IC50 (JIMT-1 [4]) was greater than 10 µM, the IC50 (BT-474 [5]) was greater than 10 µM and the IC50 (MCF7 [6]) was greater than 10 µM. It also gave an IC50 [7] greater than 10 µM.
`O=C1Nc2ccccc2N/C1=C\C(=O)c1cccc(OCc2ccccc2)c1` gave an inhibition at 10 µM (MDA-MB-468 [1]) of 50%, an IC50 (MDA-MB-468 [2]) of 6.5 µM and an IC50 (SK-BR-3 [3]) greater than 60 µM. For the same molecule, the IC50 (JIMT-1 [4]) was 44.9 µM, the IC50 (BT-474 [5]) was 28.7 µM and the IC50 (MCF7 [6]) was 41.6 µM. For the same molecule, the IC50 [7] was 47.5 µM, the “Ratio IC50” value [8] was 4.4 and the “Ratio IC50” value (MDA-MB-468 [9]) was 2. The Activity (MDA-MB-468 [10]) was “Dose-Dependent Effect”, the Activity (MDA-MB-468 [11]) was “Dose-Dependent Effect” and the inhibition [12] was “Active”. For the same molecule, the Activity (MDA-MB-468 [13]) was “Active”, the Activity (MDA-MB-468 [14]) was “inactive” and the Activity (MDA-MB-468 [15]) was “inactive”. For the same molecule, the Activity (SK-BR-3 [16]) was “inactive”, the Activity (SK-BR-3 [17]) was “inactive” and the Activity (SK-BR-3 [18]) was “inactive”. For the same molecule, the Activity (SK-BR-3 [19]) was “inactive”, the Activity (JIMT-1 [20]) was “inactive” and the Activity (JIMT-1 [21]) was “inactive”. For the same molecule, the Activity (JIMT-1 [22]) was “inactive”, the Activity (JIMT-1 [23]) was “inactive” and the Activity (BT-474 [24]) was “inactive”. The Activity (BT-474 [25]) was “inactive”, the Activity (BT-474 [26]) was “inactive” and the Activity (BT-474 [27]) was “inactive”. The Activity (MCF7 [28]) was “inactive”, the Activity (MCF7 [29]) was “inactive” and the Activity (MCF7 [30]) was “inactive”. For the same molecule, the Activity (MCF7 [31]) was “inactive”, the Activity (MCF-10A [32]) was “inactive” and the Activity (MCF-10A [33]) was “inactive”. The Activity (MCF-10A [34]) was “inactive”, the Activity (MCF-10A [35]) was “inactive” and the Activity (MDA-MB-468 [36]) was 75%. For the same molecule, the Activity (MDA-MB-468 [37]) was 9.32%, the Activity (MDA-MB-468 [38]) was 17.4% and the Activity (MDA-MB-468 [39]) was 69.1%. For the same molecule, the Activity (MDA-MB-468 [40]) was 13.3%, the Activity (MDA-MB-468 [41]) was 19.1% and the Activity (MDA-MB-468 [42]) was 58.7%. For the same molecule, the Activity (MDA-MB-468 [43]) was 20% and the Activity (MDA-MB-468 [44]) was 22.8%.
